Data on nine compounds can be found in ChEMBL document CHEMBL4257494, “Exploring eukaryotic versus prokaryotic ribosomal RNA recognition with aminoglycoside derivatives” (Medchemcomm, 2018).

The source made the active and inactive calls. The rule behind the calls is not given here.

The subject of one assay is Bacillus spizizenii. Put plainly: Antibacterial activity against Bacillus subtilis ATCC 6633 by double-microdilution method. The assay is classed as functional.
Assay [1] can be described thus: Binding affinity to decoding-site of rRNA in rabbit reticulocytes assessed as inhibition of protein translation after 60 mins by coupled transcription/translation assay. The assay is classed as cell-based, Oryctolagus cuniculus.
For the next assay, the system named is Escherichia coli. Kind of assay: Antibacterial activity against Escherichia coli R477/100 by double-microdilution method. In kind it is functional.
For assay [2], the system named is HEK293. Kind of assay: Binding affinity to decoding-site of rRNA in HEK293 cells assessed as read through activity at premature termination codon-containing PCDH15 R3X nonsense mutant gene (unknown origin) expressed in HEK293 cells after 16 hrs by dual luciferase reporter gene assay. The conditions noted are these: Homo sapiens. In kind it is cell-based.
Assay [3] is described as follows: Ratio of IC50 for inhibition of decoding-site of rRNA-mediated protein translation in rabbit reticulocytes to IC50 for inhibition of decoding-site of rRNA-mediated protein translation in Escherichia coli S30 extract. The assay is classed as cell-based.
Assay [4] has as its system HEK293. Kind of assay: Binding affinity to decoding-site of rRNA in HEK293 cells assessed as read through activity at premature termination codon-containing CFTR G452X nonsense mutant gene (unknown origin) expressed in HEK293 cells after 16 hrs by dual luciferase reporter gene assay. In kind it is cell-based. The conditions noted are these: Homo sapiens.
The nature of assay [5]: Binding affinity to decoding-site of rRNA in Escherichia coli S30 extract assessed as inhibition of protein translation after 60 mins by coupled transcription/translation assay.

Regarding `C[C@H](N)[C@H]1O[C@H](O[C@@H]2[C@@H](O)[C@H](N)C[C@H](N)[C@H]2O[C@H]2O[C@@H](C(=O)O)[C@@H](O)[C@H](O)[C@H]2N)[C@H](O)[C@@H]1O.O=S(=O)(O)O`, the minimal inhibitory concentration (MIC) with Bacillus spizizenii and in the assay with Escherichia coli was greater than 192 mg/L in each case. Besides, the values for the IC50 in assay [1] and in assay [5] were 600 µM and 1300 µM, respectively. The result in the assay on HEK293 [2] and in the assay with HEK293 [4] was inactive. The Ratio IC50 in assay [3] turned out to be 0.5.
`NC[C@H]1O[C@H](O[C@@H]2[C@@H](O)[C@H](N)C[C@H](N)[C@H]2O[C@H]2O[C@@H](C(=O)O)[C@@H](O)[C@H](O)[C@H]2N)[C@H](O)[C@@H]1O.O=S(=O)(O)O`: the MIC in the assay with Bacillus spizizenii and against Escherichia coli was greater than 192 mg/L in each case. In addition, the IC50 is 500 µM in assay [1] and 420 µM in assay [5]. The Ratio IC50 in assay [3] stood at 1.2.
Regarding `C[C@H](N)[C@H]1O[C@H](O[C@@H]2[C@@H](O)[C@H](N)C[C@H](N)[C@H]2O[C@H]2O[C@H](CO)[C@@H](O)[C@H](O)[C@H]2N)[C@H](O)[C@@H]1O.O=S(=O)(O)O`, the MIC in the assay on Bacillus spizizenii and in the assay with Escherichia coli was greater than 192 mg/L throughout. Besides, the values for the IC50 in assay [1] and in assay [5] were 3180 µM and 2410 µM, respectively. Besides, the outcome with HEK293 [2] and with HEK293 [4] was Active. In addition, the Ratio IC50 in assay [3] was found to be 1.3.
In the case of `C[C@H](N)[C@H]1O[C@H](O[C@@H]2[C@@H](O)[C@H](N)C[C@H](N)[C@H]2O[C@H]2O[C@@H](C(N)=O)[C@@H](O)[C@H](O)[C@H]2N)[C@H](O)[C@@H]1O.O=S(=O)(O)O`, the MIC against Bacillus spizizenii and in the assay on Escherichia coli was greater than 192 mg/L each time. The figures for the IC50 in assay [1] and in assay [5] were 520 µM and 2310 µM, respectively. Further, the outcome with HEK293 [2] and with HEK293 [4] was inactive. The Ratio IC50 in assay [3] amounted to 0.2.
As to `N[C@H]1[C@@H](O[C@H]2[C@H](O)[C@@H](O)[C@H](N)C[C@@H]2N)O[C@H](CO)[C@@H](O)[C@@H]1O.O=S(=O)(O)O` [PAROMAMINE SULFATE], the MIC in the assay with Bacillus spizizenii and in the assay with Escherichia coli was greater than 192 mg/L throughout. For the same compound, the IC50 in assay [1] was 800 µM; in assay [5], 10 µM. The Ratio IC50 in assay [3] was 80.
On to `NC[C@H]1O[C@H](O[C@@H]2[C@@H](O)[C@H](N)C[C@H](N)[C@H]2O[C@H]2O[C@H](CO)[C@@H](O)[C@H](O)[C@H]2N)[C@H](O)[C@@H]1O.O=S(=O)(O)O`, for which the MIC in the assay on Bacillus spizizenii and with Escherichia coli was greater than 192 mg/L in each case. In addition, the IC50 amounted to 4320 µM in assay [1] and 2930 µM in assay [5]. Further, the result in the assay on HEK293 [2] and with HEK293 [4] was Active. Moreover, the Ratio IC50 in assay [3] is 1.5.
For the compound `NC[C@H]1O[C@H](O[C@@H]2[C@@H](O)[C@H](N)C[C@H](N)[C@H]2O[C@H]2O[C@@H](C(N)=O)[C@@H](O)[C@H](O)[C@H]2N)[C@H](O)[C@@H]1O.O=S(=O)(O)O`, it took 83 mg/L to inhibit growth in the assay on Bacillus spizizenii (MIC). Moreover, the IC50 is 20 µM in assay [1] and 2 µM in assay [5]. Besides, the Ratio IC50 in assay [3] stood at 10.
As for `NC(=O)[C@@H]1O[C@H](O[C@H]2[C@H](O)[C@@H](O)[C@H](N)C[C@@H]2N)[C@H](N)[C@@H](O)[C@@H]1O.O=S(=O)(O)O`, the MIC against Bacillus spizizenii and with Escherichia coli was greater than 192 mg/L each time. In addition, the IC50 in assay [1] amounted to 700 µM; in assay [5], 1300 µM. In addition, the Ratio IC50 in assay [3] is 0.5.
For `N[C@H]1[C@@H](O[C@H]2[C@H](O)[C@@H](O)[C@H](N)C[C@@H]2N)O[C@@H](C(=O)O)[C@@H](O)[C@@H]1O.O=S(=O)(O)O`, in the assay on Bacillus spizizenii, 100 mg/L was the least that counted as inhibitory (MIC). Besides, the IC50 in assay [1] stood at 30 µM; in assay [5], 0.5 µM. Moreover, in assay [3], the Ratio IC50 was found to be 60.
